Tests used:
Type in all cases: in vivo
Scirpus juncoides = assay: Test Example 1: herbicidal activity, application before weed generation in submerged conditions; conditions: Application herbicide amount 320 g/ha; Seventeenth Table
How it was run: (§1)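 Pre-emergence water-surface application under 4 cm flooding, same day as sowing, with rice transplanted at 2.5 leaf stage. Dose given as g/ha. Plants grown at 25° C. to 30° C. and rated three weeks later on a 0 (≤5%) to 5 (≥90%) herbicidal-ratio scale.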

[1] = system: Echinochloa oryzacola Vasing.; assay: as above; conditions: Application herbicide amount 320 g/ha; Seventeenth Table
How it was run: as §1

Monochoria vaginalis = assay: as above; conditions: Application herbicide amount 320 g/ha; Seventeenth Table
How it was run: as §1

Lolium multiflorum Lam. = assay: Test Example 4: herbicidal effect by application to foliage (diluvial soil, plastic box); conditions: for K: herbicidal effect on Lolium multiflorum Lam.: application to foliage, application herbicide amount 320 g/ha; for K (Lolium multiflorum Lam.) herbicidal effect grade: foliage application
How it was run: (§2)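 Seeds sown in sterilized diluvial soil, covered ~1.5 cm, grown 14 days in greenhouse at 25° C. to 30° C. Emulsion formulation diluted in water to set rate (g/ha) and sprayed onto stems and leaves. Effect scored visually 3 weeks later on 0–5 scale (5 = ≥90% herbicidal ratio, 0 = ≤5%).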

Galium spurium = assay: as above; conditions: for Q: herbicidal effect on Galium spurium: application to foliage, application herbicide amount 320 g/ha; for Q (Galium spurium) herbicidal effect grade: foliage application
How it was run: as §2

[2] = system: Echinochloa crus-galli var. crus-galli; assay: as above; conditions: for H: herbicidal effect on Echinochloa crus-galli var. crus-galli: application to foliage, application herbicide amount 320 g/ha; for H (Echinochloa crus-galli var. crus-galli) herbicidal effect grade: foliage application
How it was run: as §2

Avena fatua = assay: as above; conditions: for I: herbicidal effect on Avena fatua: application to foliage, application herbicide amount 320 g/ha; for I (Avena fatua) herbicidal effect grade: foliage application
How it was run: as §2

[3] = system: Echinochloa oryzacola Vasing.; assay: Test Example 2: herbicidal activity, application during weed generation in submerged conditions; conditions: Eighteenth Table; application herbicide amount 320 g/ha
How it was run: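 Scored three weeks post-application on a 0–5 scale (5: ≥90% herbicidal ratio, almost withered; 0: ≤5%). Plants raised from mixed-sown seed in submerged alluvial soil (4 cm water), 25–30 °C greenhouse; water-diluted emulsion applied onto water surface at one- to two-leaf stage, dose in g/ha.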

[4] = system: transplanted Oryza sativa; assay: Test Example 1: effect on crop, application before weed generation in submerged conditions; conditions: Application herbicide amount 320 g/ha; Seventeenth Table
How it was run: as §1

[5] = Application herbicide amount 320 g/ha

SMILES	B: Scirpus juncoides (herbicidal effect grade) (Scirpus juncoides)	A: Echinochloa oryzicola Vasing. (herbicidal effect grade) [1]	C: Monochoria vaginalis (herbicidal effect grade) (Monochoria vaginalis)	A (Echinochloa oryzicola Vasing.) herbicidal ratio grade [3]	a: transplanted Oryza sativa (effect on crop grade) [4]	K (Lolium multiflorum Lam.) herbicidal effect grade (Lolium multiflorum Lam.; [5])	Q (Galium spurium) herbicidal effect grade (Galium spurium; [5])	H (Echinochloa crus-galli var. crus-galli) herbicidal effect grade [2, 5]	I (Avena fatua) herbicidal effect grade (Avena fatua; [5])	further results
CSc1nnc2c(C(=O)Nc3nnnn3C)ccc(C(F)(F)F)n12 [2-013]	4 (Herbicidal ratio of 70% or more and less than 90%)	5 (Herbicidal ratio of 90% or more (almost completely withered))	5 (Herbicidal ratio of 90% or more (almost completely withered))	5 (Herbicidal ratio of 90% or more (almost completely withered))	3 (Herbicidal ratio of 40% or more and less than 70%)					K: herbicidal effect on Lolium multiflorum Lam. (Lolium multiflorum Lam.): 3 (Herbicidal ratio of 40% or more and less than 70%); Q: herbicidal effect on Galium spurium (Galium spurium): 4 (Herbicidal ratio of 70% or more and less than 90%); H: herbicidal effect on Echinochloa crus-galli var. crus-galli [2]: 5 (Herbicidal ratio of 90% or more (almost completely withered)); I: herbicidal effect on Avena fatua (Avena fatua): 4 (Herbicidal ratio of 70% or more and less than 90%)
O=C(Nc1nnco1)c1ccc(C(F)(F)F)n2c(N3CCCC3)nnc12 [1-139]	4 (Herbicidal ratio of 70% or more and less than 90%)	5 (Herbicidal ratio of 90% or more (almost completely withered))	3 (Herbicidal ratio of 40% or more and less than 70%)	4 (Herbicidal ratio of 70% or more and less than 90%)	2 (Herbicidal ratio of 20% or more and less than 40%)	1 (Herbicidal ratio of 5% or more and less than 20%)	2 (Herbicidal ratio of 20% or more and less than 40%)	5 (Herbicidal ratio of 90% or more (almost completely withered))	1 (Herbicidal ratio of 5% or more and less than 20%)	
COCCOC(=O)Cc1nnc2c(C(=O)Nc3nnc(C)o3)ccc(C(F)(F)F)n12 [1-060]	4 (Herbicidal ratio of 70% or more and less than 90%)	4 (Herbicidal ratio of 70% or more and less than 90%)	3 (Herbicidal ratio of 40% or more and less than 70%)	2 (Herbicidal ratio of 20% or more and less than 40%)	2 (Herbicidal ratio of 20% or more and less than 40%)					K (Lolium multiflorum Lam.; [5]): 2 (Herbicidal ratio of 20% or more and less than 40%); Q (Galium spurium; [5]): 3 (Herbicidal ratio of 40% or more and less than 70%); H [2, 5]: 5 (Herbicidal ratio of 90% or more (almost completely withered)); I (Avena fatua; [5]): 3 (Herbicidal ratio of 40% or more and less than 70%)
CCN(C)c1nnc2c(C(=O)Nc3nnco3)ccc(C(F)(F)F)n12 [1-137]	5 (Herbicidal ratio of 90% or more (almost completely withered))	5 (Herbicidal ratio of 90% or more (almost completely withered))	5 (Herbicidal ratio of 90% or more (almost completely withered))	3 (Herbicidal ratio of 40% or more and less than 70%)	3 (Herbicidal ratio of 40% or more and less than 70%)	2 (Herbicidal ratio of 20% or more and less than 40%)	3 (Herbicidal ratio of 40% or more and less than 70%)	5 (Herbicidal ratio of 90% or more (almost completely withered))	3 (Herbicidal ratio of 40% or more and less than 70%)	
Cn1nnnc1NC(=O)c1ccc(C(F)(F)F)n2c(-c3ccc(Cl)cc3)nnc12 [2-012]	4 (Herbicidal ratio of 70% or more and less than 90%)	5 (Herbicidal ratio of 90% or more (almost completely withered))	3 (Herbicidal ratio of 40% or more and less than 70%)	4 (Herbicidal ratio of 70% or more and less than 90%)	1 (Herbicidal ratio of 5% or more and less than 20%)					K: herbicidal effect on Lolium multiflorum Lam. (Lolium multiflorum Lam.): 2 (Herbicidal ratio of 20% or more and less than 40%); Q: herbicidal effect on Galium spurium (Galium spurium): 4 (Herbicidal ratio of 70% or more and less than 90%); H: herbicidal effect on Echinochloa crus-galli var. crus-galli [2]: 4 (Herbicidal ratio of 70% or more and less than 90%); I: herbicidal effect on Avena fatua (Avena fatua): 3 (Herbicidal ratio of 40% or more and less than 70%)
COc1ccc(Cc2nnc3c(C(=O)Nc4nnco4)ccc(C(F)(F)F)n23)cc1 [1-151]	5 (Herbicidal ratio of 90% or more (almost completely withered))	5 (Herbicidal ratio of 90% or more (almost completely withered))	3 (Herbicidal ratio of 40% or more and less than 70%)	4 (Herbicidal ratio of 70% or more and less than 90%)	0 (Herbicidal ratio of 5% or less (almost no effect))	3 (Herbicidal ratio of 40% or more and less than 70%)	4 (Herbicidal ratio of 70% or more and less than 90%)	5 (Herbicidal ratio of 90% or more (almost completely withered))	3 (Herbicidal ratio of 40% or more and less than 70%)	
CSCc1nnc2c(C(=O)Nc3nnco3)ccc(C(F)(F)F)n12 [1-146]	5 (Herbicidal ratio of 90% or more (almost completely withered))	5 (Herbicidal ratio of 90% or more (almost completely withered))	5 (Herbicidal ratio of 90% or more (almost completely withered))	3 (Herbicidal ratio of 40% or more and less than 70%)	3 (Herbicidal ratio of 40% or more and less than 70%)	4 (Herbicidal ratio of 70% or more and less than 90%)	5 (Herbicidal ratio of 90% or more (almost completely withered))	5 (Herbicidal ratio of 90% or more (almost completely withered))	4 (Herbicidal ratio of 70% or more and less than 90%)	
Cn1nnnc1NC(=O)c1ccc(C(F)(F)F)n2c(CSCC(F)(F)F)nnc12 [2-030]	4 (Herbicidal ratio of 70% or more and less than 90%)	5 (Herbicidal ratio of 90% or more (almost completely withered))	4 (Herbicidal ratio of 70% or more and less than 90%)	4 (Herbicidal ratio of 70% or more and less than 90%)	3 (Herbicidal ratio of 40% or more and less than 70%)					K (Lolium multiflorum Lam.) herbicidal effect grade (Lolium multiflorum Lam.; 320 g/ha): 3 (Herbicidal ratio of 40% or more and less than 70%); Q (Galium spurium) herbicidal effect grade (Galium spurium; 320 g/ha): 3 (Herbicidal ratio of 40% or more and less than 70%); H (Echinochloa crus-galli var. crus-galli) herbicidal effect grade ([2]; 320 g/ha): 5 (Herbicidal ratio of 90% or more (almost completely withered)); I (Avena fatua) herbicidal effect grade (Avena fatua; 320 g/ha): 4 (Herbicidal ratio of 70% or more and less than 90%)

Reference: patent publication US9708314B2, “Heterocyclic amide compound” (NISSAN CHEMICAL INDUSTRIES, LTD., priority 2013, dated 2017)
